Test results published in US20100022509A1, “Inhibitors of MshC and Homologs Thereof, and Methods of Identifying Same” (priority 2006, published 2010).
Where two headings read alike, the source gives them in different places. Marks after values point to notes of the source that are not given here.

What was measured:
Assay type in all cases: biochemical, M. tuberculosis
[1] = molecular target: T1, MshC (Mycobacterium tuberculosis, UniProt P9WJM9); assay: Metal chelation by phenanthrolines; settings: 0.1-5 mM phenanthroline
T1 sequence (P9WJM9 1-414): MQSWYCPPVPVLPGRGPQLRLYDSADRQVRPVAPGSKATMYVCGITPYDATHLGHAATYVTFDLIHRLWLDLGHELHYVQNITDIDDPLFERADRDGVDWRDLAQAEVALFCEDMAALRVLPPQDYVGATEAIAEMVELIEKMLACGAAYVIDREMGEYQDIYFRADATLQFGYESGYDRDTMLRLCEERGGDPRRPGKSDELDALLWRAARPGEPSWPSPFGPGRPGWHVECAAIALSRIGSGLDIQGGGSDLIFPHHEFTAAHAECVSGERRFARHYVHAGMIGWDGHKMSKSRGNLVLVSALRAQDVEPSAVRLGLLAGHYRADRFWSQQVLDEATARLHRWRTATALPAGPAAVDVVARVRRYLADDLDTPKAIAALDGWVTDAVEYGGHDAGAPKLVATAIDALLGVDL

[2] = molecular target: T1, MshC; assay: Inhibition studies of MshC ligase activity (HEPES pH 7.5, HPLC); settings: for % inhibition: 50 μM GlcN-Ins and 70 μM Cys
[3] = molecular target: T1, MshC; settings: for activity as alternative substrate to Cys, in words: 80 μM to 1.6 mM
[4] = molecular target: T1, MshC; assay: biochemical; settings: for inhibition of MshC in words, compounds grouped by X: X=S, X=SO, X=SO2
[5] = molecular target: T1, MshC; assay: Zn supplementation; settings: 2, 10, 50 or 100 μM zinc chloride
[6] = molecular target: T1, MshC; assay: Coupled enzyme spectrophotometric screening assay (MshC plus pyrophosphatase, malachite green); settings: 1.6 mM cysteamine, 1 μg MshC
[7] = 80-1600 μM, 70 μM L-Cys and 50 μM GlcN-Ins

SMILES: c1cnc2c(c1)ccc1cccnc12 [1,10-phenanthroline]
- effect on enzyme activity, in words [1]: no significant loss of activity

SMILES: CC(=O)N[C@@H](CS)C(=O)O [AcCys, N-acetylcysteine]
- inhibition of the ligase activity, in words [2, 7]: minor inhibition
- % inhibition ([2]; [inhibitor] 1600 μM): 20 ± 6%
- relative spec. act. [3]: ≦0.24
- activity as alternative substrate to Cys, in words [3]: Nor was significant activity detected

SMILES: N[C@@H](CS)C(=O)O [Cys, L-cysteine]
- apparent Vmax [3]: 1450 ± 200 nmol/min/mg
- Specific activity ([3]; Cys 70 μM, 50 μM GlcN-Ins, 37° C.): ^cSpecific activity 108 nmol min^−1 mg^−1.
- relative spec. act. ([3]; Cys 70 μM, reference): (100)^c
- Km ([3]; as stated in the feedback inhibition paragraph, read-out: apparent Km value for Cys): 70 ± 15 µM
- Km ([3]; pH 7.5, read-out: apparent Km for L-Cys): 85 ± 20 µM

SMILES: N[C@@H](CS)C(=O)N[C@H]1[C@@H](OC2[C@H](O)[C@H](O)C(O)[C@H](O)[C@H]2O)O[C@H](CO)[C@@H](O)[C@@H]1O (some centres unmarked) [Cys-GlcN-Ins, cysteinyl glucosaminyl inositol]
- inhibition (feedback) [2]: < 1.0%

SMILES: N[C@H](CS)C(=O)O [D-Cys]
- inhibition of the ligase activity, in words [2, 7]: very minor inhibition
- % inhibition ([2]; [inhibitor] 1600 μM): 15 ± 8%
- relative spec. act. [3]: ≦0.7
- activity as alternative substrate to Cys, in words [3]: poor substrate

SMILES: N[C@H]1C(O)O[C@H](CO)[C@@H](O)[C@@H]1O (stereo partly drawn) [D-GlcN]
- activity relative to GlcN-Ins [3]: ~1%
- relative spec. act. [3]: 1.2

SMILES: N[C@H]1[C@@H](O[C@@H]2[C@H](O)[C@H](O)[C@@H](O)[C@H](O)[C@H]2O)O[C@H](CO)[C@@H](O)[C@@H]1O [GlcN-Ins, 1-O-(2-amino-2-deoxy-α-D-glucopyranosyl)-D-myo-inositol]
- apparent Vmax ([3]; GlcN-Ins varied, 1 mM ATP and 0.5 mM Cys): 1160 ± 120 nmol/min/mg
- Km ([3]; pH 7.5, read-out: apparent Km for GlcN-Ins): 280 ± 43 µM

SMILES: CCC1CCCCN1CCCNC(=O)c1ccc2c(c1)N(Cc1cccc(Cl)c1)C(=O)c1ccccc1S2(=O)=O (centres unmarked) [Inhibitor 1954]
- inhibition of MshC in words, 1,3-diaminopropyl residue with remote amino residue capable of protonation [4]: measurable inhibition
- inhibition of MshC in words, Z is a benzyl moiety bearing one or more halogens [4]: Measurable inhibition
- IC50 ([4]; IC50, μM): 1100 ± 200 µM
- inhibition of MshC in words, compounds grouped by X [4]: Significant inhibition

SMILES: O=C(NCCCSC1CCCCC1)c1ccc2c(c1)N(Cc1cccc(Cl)c1)C(=O)c1ccccc1S2(=O)=O [Inhibitor 1964]
- inhibition of MshC in words, compounds lacking the basic amino group or with groups in excess of 10 carbons on the remote amino residue [4]: little or no inhibition
- IC50 ([4]; IC50, μM): > 3000 µM

SMILES: CCCCN(C)CCCNC(=O)c1ccc2c(c1)N(Cc1cccc(Cl)c1)C(=O)c1ccccc1S2(=O)=O [Inhibitor 1965]
- inhibition of MshC in words, 1,3-diaminopropyl residue with remote amino residue capable of protonation [4]: measurable inhibition
- inhibition of MshC in words, Z is a benzyl moiety bearing one or more halogens [4]: Measurable inhibition
- IC50 ([4]; IC50, μM): 1700 ± 300 µM
- inhibition of MshC in words, compounds grouped by X [4]: Significant inhibition

SMILES: CCN(C(=O)c1ccc2c(c1)N(Cc1cccc(Cl)c1)C(=O)c1ccccc1S2(=O)=O)c1ccccc1 [Inhibitor 1966]
- IC50 ([4]; IC50, μM): > 3000 µM

SMILES: COC(=O)c1cc2c(cc1NC(=O)c1ccc3c(c1)N(Cc1cccc(Cl)c1)C(=O)c1ccccc1[S+]3[O-])OCCO2 (centres unmarked) [Inhibitor 1984]
- IC50 ([4]; IC50, μM): > 3000 µM

SMILES: COC(=O)c1cc(NC(=O)c2ccc3c(c2)N(Cc2cccc(Cl)c2)C(=O)c2ccccc2[S+]3[O-])cc(C(=O)OC)c1 (centres unmarked) [Inhibitor 1986]
- IC50 ([4]; IC50, μM): > 3000 µM

SMILES: C[C@H](N)C(=O)O [L-alanine]
- inhibition of the ligase activity, in words [2, 7]: very minor inhibition
- % inhibition ([2]; [inhibitor] 5000 μM): 4 ± 8%
- relative spec. act. [3]: ≦0.016
- activity as alternative substrate to Cys, in words [3]: Nor was significant activity detected

SMILES: N[C@@H](CCS)C(=O)O [L-homocysteine]
- inhibition of the ligase activity, in words [2, 7]: very minor inhibition
- % inhibition ([2]; [inhibitor] 1600 μM): 0 ± 5%
- relative spec. act. [3]: ≦0.2
- activity as alternative substrate to Cys, in words [3]: Nor was significant activity detected

SMILES: N[C@@H](CO)C(=O)O [L-serine]
- inhibition of the ligase activity, in words [2, 7]: very minor inhibition
- % inhibition ([2]; [inhibitor] 5000 μM): 15 ± 8%
- relative spec. act. [3]: ≦0.008
- activity as alternative substrate to Cys, in words [3]: Nor was significant activity detected

SMILES: CC[C@H](N)C(=O)O [L-α-aminobutyric acid]
- inhibition of the ligase activity, in words [2, 7]: very minor inhibition

SMILES: CC(=O)N[C@@H](CS)C(=O)N[C@H]1[C@@H](OC2[C@H](O)[C@H](O)C(O)[C@H](O)[C@H]2O)O[C@H](CO)[C@@H](O)[C@@H]1O (stereo partly drawn) [MSH, 1-D-myo-inosityl 2-(N-acetyl-L-cysteinyl)amido-2-deoxy-α-D-glucopyranoside]
- inhibition of the ligase activity, in words ([2]; 1 and 5 mM, physiologic levels): minimal inhibition
- % inhibition ([2]; [inhibitor] 1000 μM): 4 ± 3%
- % inhibition ([2]; [inhibitor] 5000 μM): 7 ± 5%

SMILES: CN(CCCNC(=O)c1ccc2c(c1)N(Cc1cccc(Cl)c1)C(=O)c1ccccc1[S+]2[O-])C1CCCCC1 (centres unmarked) [NTF1836]
- IC50 ([4]; 50, 100 and 200 μM in 0.005% Triton X-100, reciprocal plot of velocity versus inhibitor concentration, read-out: IC50): ~100 µM
- IC50 ([4]; read-out: IC50 for MshC activity in an vitro enzyme assay): 100 µM

SMILES: [Cl-].[Cl-].[Zn+2] [Zn^2+, zinc chloride]
- effect on enzyme activity, in words [5]: loss in activity

SMILES: NCCS [cysteamine]
- reduction in rate ([2]; 1.6 mM): 3 fold
- % inhibition ([2]; [inhibitor] 1600 μM): 65 ± 10%
- inhibition of the reaction catalyzed by MshC, in words ([4]; using the HPLC assay): weak inhibitor
- rate of phosphate production in the coupled enzyme assay [6]: markedly depressed
- relative spec. act. [3]: ≦0.16

SMILES: O=C(O)CCS [β-mercaptopropionate, β-mercaptopropionic acid]
- inhibition of the ligase activity, in words [2, 7]: minor inhibition
- % inhibition ([2]; [inhibitor] 1600 μM): −20 ± 20%
- relative spec. act. [3]: ≦0.004
